Results reported in patent US5463107A, “Triterpene derivatives and endothelin-receptor antagonists containing the same” (Shionogi & Co., Ltd., priority 1993, dated 1995).
Read-outs that look alike come from different tables or passages of the source.

Tests used:
[1] = molecular target: T1, endothelin receptor (smooth muscle A7r5 cells derived from rat aorta) (Rattus norvegicus, UniProt P26684); assay: Inhibitory effect on the binding of 125I-endothelin-1 to its receptor (rat aorta smooth muscle A7r5 cells); details: 25 pM 125I-endothelin-1, 37° C., 1 hr, read-out: IC50 binding: 50% inhibition of the specific binding of 125I-endothelin-1 to its receptor
T1 construct: Smooth muscle A7r5 cells derived from rat aorta; endogenous in cells; host or cells: A7r5 (rat aortic smooth muscle)
T1 sequence (P26684 21-426): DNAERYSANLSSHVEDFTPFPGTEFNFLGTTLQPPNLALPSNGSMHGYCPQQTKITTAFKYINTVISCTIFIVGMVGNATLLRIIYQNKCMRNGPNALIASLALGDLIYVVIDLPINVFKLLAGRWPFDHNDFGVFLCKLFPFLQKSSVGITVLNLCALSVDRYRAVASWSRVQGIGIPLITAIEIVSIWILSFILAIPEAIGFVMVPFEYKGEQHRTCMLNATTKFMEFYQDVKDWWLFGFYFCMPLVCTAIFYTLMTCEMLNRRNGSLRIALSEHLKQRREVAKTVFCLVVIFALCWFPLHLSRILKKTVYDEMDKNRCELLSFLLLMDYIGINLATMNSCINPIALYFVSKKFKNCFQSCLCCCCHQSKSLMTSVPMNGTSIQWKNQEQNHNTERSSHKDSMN
Method: Inhibitory Effect on the Binding of ^125 I-Endothelin-1 to its Receptor
Smooth muscle A7r5 cells derived from rat aorta were incubated with 25 pM ^125 I-endothelin-1 at 37° C. for 1 hr in the presence or absence of a compound (I) of the present invention. After completion of the reaction, ^125 I-endothelin-1 bound to membrane fraction was separated by filtrating through glass fiber filters and the radioactivity was determined with a gamma-counter. The specific binding was calculated by subtracting the nonspecific binding which was determined in the presence of 10^-7 M non-radioactive endothelin-1 from the total binding.

[2] = tested on: endothelin-1-induced increase in cytosolic calcium ion concentration, rat aortic smooth muscle A7r5 cells; assay: Inhibition of the endothelin-1-induced increase in cytosolic calcium ion concentration in A7r5 cells; type: cell-based; details: fura-2, compound 1 min before 10^-8 M endothelin-1, read-out: IC50 (Ca^2+): inhibition of endothelin-1-induced increase in cytosolic calcium concentration
Method: Inhibition of the Endothelin-1-induced Increase in Cytosolic Calcium Ion Concentration
To a cuvette was put a suspension of rat aortic smooth muscle A7r5 cells (Dainippon Pharmaceutical Co., Ltd.) on which 2 μM fura-2 (Dojin) has been loaded. The change in fluorescence intensity was determined with a calcium analyzer (CAF100, Nippon Bunkou Co.). In the determination, the excitation was performed at 340 nm and 380 nm and the recording at 510 nm. The cytosolic calcium concentration was calculated according to the method of Grynkiewicz et al., J. Biol. Chem., 260., pp. 3440-3450, 1985.
The experiment was carried out by adding a compound (I) of the present invention to the cell suspension in cuvette, incubating for 1 min, adding 10^-8 M endothelin-1, and measuring the change in fluorescence intensity.

[3] = molecular target: T2, endothelin-1-induced contraction, isolated rat thoracic aorta (Rattus norvegicus, UniProt P26684); assay: Inhibition of endothelin-1-induced contraction in isolated rat thoracic aorta; details: 10^-8, 3×10^-8, 10^-7 M, 10 min, 37° C.
T2 construct: specimens isolated from rat thoracic aorta; from tissue; host or cells: rat thoracic aorta, transverse strips
T2 sequence (P26684 21-426): T1 sequence (P26684 21-426)
Method: Inhibition of Endothelin-1-induced Contradiction in Isolated Rat Thoracic Aorta
Transverse Stip specimens isolated from rat thoracic aorta were suspended in modified Locke-Ringer solution at 37° C. while aerating with mixed gas (95% O2 +5% CO2), and the isometric tension was recorded. Four specimens derived from each rat were used in the test. Thus, three specimens were treated with compound 1c (disodium salt; prepared in Example 1 or 3) of different concentration (10^-8 M, 3×10^-8 M, and 10^-7 M) for 10 min and the rest was untreated before the measurement of isometric tension.

[4] = tested on: endothelin-1-induced hypertension, pithed rat; assay: Inhibition of endothelin-1-induced hypertension in pithed rat; type: in vivo; details: intravenous, dose between 0.01 and 1 mg/kg
Method: Inhibition of Endothelin-1-induced Hypertension in Pithed Rat
Under ether anesthesia, a stainless-steal rod (diameter: 2 mm) was inserted from right orbital to spinal end of a rat. The resultant pithed rat was placed under artificial respiration and the change in blood pressure was recorded. Drugs (endothelin-1 and compound 1c prepared in Example 1 or 3) were administered intravenously.

| IC50 [1] [nM] | IC50 ([2]; Rattus norvegicus) [nM] | Kb ([3]; read-out: pA2 value, endothelin-1 concentration-contraction curve (converted)) [nM] | IC50 [2] [nM] | Compound | shift of endothelin-1 concentration-contraction curve [3] | decrease of blood pressure [4] |
| --- | --- | --- | --- | --- | --- | --- |
| 3 | 3 | – | – | CC1(C)CC[C@]2(C(=O)O)CC[C@]3(COC(=O)/C=C/c4cc(O)ccc4NCC(=O)O)C(=CCC4[C@@]5(C)CCC(=O)C(C)(C)C5CC[C@]43C)[C@@H]2C1 (stereo partly drawn) [Compound 1n] | – | – |
| 0.5 | 2.6 | – | – | CC1(C)CC[C@]2(C(=O)O)CC[C@]3(COC(=O)/C=C/c4cc(O)ccc4NC(=O)/C=C/C(=O)O)C(=CCC4[C@@]5(C)CCC(=O)C(C)(C)C5CC[C@]43C)[C@@H]2C1 (single isomer, unassigned) [Compound 1b] | – | – |
| 76 | 10 | – | – | CC1(C)CC[C@]2(C(=O)O)CC[C@]3(COC(=O)/C=C/c4ccc(O)c(O)c4)C(=CCC4[C@@]5(C)CCC(=O)C(C)(C)C5CC[C@]43C)[C@@H]2C1 (stereo partly drawn) [Compound 50-235, reference compound] | – | – |
| 0.7 | – | 1.58 | 2.6 | CC1(C)CC[C@]2(C(=O)O)CC[C@]3(COC(=O)/C=C/c4cc(O)ccc4NC(=O)/C=C/C(=O)O)C(=CCC4[C@@]5(C)CCC(=O)C(C)(C)C5CC[C@]43C)[C@@H]2C1 (single isomer, unassigned) [Compound 1c] | shifts the concentration-contradiction curve to right in a concentration-dependent manner | decreased the blood pressure in a dose-dependent manner |
| 2.9 | 2.8 | – | – | CC1(C)CC[C@]2(C(=O)O)CC[C@]3(COC(=O)/C=C/c4cc(O)ccc4NS(=O)(=O)O)C(=CCC4[C@@]5(C)CCC(=O)C(C)(C)C5CC[C@]43C)[C@@H]2C1 (stereo partly drawn) [Compound 1k] | – | – |
| 24 | 4.5 | – | – | CC1(C)CC[C@]2(C(=O)O)CC[C@]3(COC(=O)/C=C/c4cc(O)ccc4N)C(=CCC4[C@@]5(C)CCC(=O)C(C)(C)C5CC[C@]43C)[C@@H]2C1 (stereo partly drawn) [Compound 1a] | – | – |
| 3.6 | 3.5 | – | – | CC1(C)CC[C@]2(C(=O)O)CC[C@]3(COC(=O)/C=C/c4cc(O)ccc4NC(=O)CCC(=O)O)C(=CCC4[C@@]5(C)CCC(=O)C(C)(C)C5CC[C@]43C)[C@@H]2C1 (stereo partly drawn) [Compound 1e] | – | – |
| 5 | 2.7 | – | – | COC(=O)/C=C/C(=O)Nc1ccc(O)cc1/C=C/C(=O)OC[C@@]12CC[C@@]3(C(=O)O)CCC(C)(C)C[C@H]3C1=CCC1[C@@]3(C)CCC(=O)C(C)(C)C3CC[C@]12C (stereo partly drawn) [Compound 1m] | – | – |
| 1.8 | 2.5 | – | – | CC1(C)CC[C@]2(C(=O)O)CC[C@]3(COC(=O)/C=C/c4cc(O)ccc4NC(=O)C(=O)O)C(=CCC4[C@@]5(C)CCC(=O)C(C)(C)C5CC[C@]43C)[C@@H]2C1 (stereo partly drawn) [Compound 1g] | – | – |
| 6.6 | 4.6 | – | – | CC1(C)CC[C@]2(C(=O)O)CC[C@]3(COC(=O)/C=C/c4cc(O)ccc4NC(=O)CCCC(=O)O)C(=CCC4[C@@]5(C)CCC(=O)C(C)(C)C5CC[C@]43C)[C@@H]2C1 (stereo partly drawn) [Compound 1i] | – | – |
| 3.4 | 3 | – | – | CC1(C)CC[C@]2(C(=O)O)CC[C@]3(COC(=O)/C=C/c4cc(O)ccc4NC(=O)/C=C\C(=O)O)C(=CCC4[C@@]5(C)CCC(=O)C(C)(C)C5CC[C@]43C)[C@@H]2C1 (stereo partly drawn) [Compound 1d] | – | – |
| 9 | 5.6 | – | – | CC1(C)CC[C@]2(C(=O)O)CC[C@]3(COC(=O)/C=C/c4cc(O)ccc4NC(=O)CC(=O)O)C(=CCC4[C@@]5(C)CCC(=O)C(C)(C)C5CC[C@]43C)[C@@H]2C1 (stereo partly drawn) [Compound 1h] | – | – |
